The values below come from article PMC7226586 (Journal of Medicinal Chemistry, 2019).

The target of series [1] is T1, purified recombinant CYP46A1 (Homo sapiens, UniProt Q9Y6A2). Description: CYP46A1 enzyme assay. The series is classed as biochemical.
Series [2] concerns the target substrate-free CYP46A1 (Homo sapiens, UniProt Q9Y6A2). In words: Spectral titrations of substrate-free CYP46A1. Type of series: binding.
Series [3] deals with cholesterol-bound CYP46A1 (Homo sapiens, UniProt Q9Y6A2). Description: Spectral titrations of cholesterol-bound CYP46A1. Type of series: binding. The following applies: 20 μM cholesterol.
Series [4] addresses CYP46A1 (Homo sapiens, UniProt Q9Y6A2). Description: Stopped-flow kinetics of compound binding to and release from CYP46A1.
Series [5] addresses T1, purified recombinant CYP46A1. As to conditions: previous study; cited from earlier work.
The conditions of series [6]: plasma of EFV-treated subjects; cited from earlier work.
For series [7] the following is noted: cited from earlier work.
The subject of series [8] is protein (albumin). The following applies: cited from earlier work.
For series [9] the following is noted: within 1 h of an intraperitoneal administration; cited from earlier work.
Series [10] relates to CYP46A1 in the brain. As to conditions: 0.32 (mg/da)/kg body dose, mice; cited from earlier work.

SMILES strings stand for the structures.

For the molecule `O=C1Nc2ccc(Cl)cc2[C@@](C#CC2CC2)(C(F)(F)F)O1` [(S)-EFV, (S)-6-chloro-4-(cyclopropylethynyl)-4-(trifluoromethyl)-1,4-dihydro-2H-benzo[d][1,3]oxazin-2-one, reference compound], the “shape of concentration dependence curve of CYP46A1 activity” value in series [1] (0–100 μM compound) is recorded as “bell-shaped”. Besides, the “CYP46A1 inhibition at the 60–100 μM concentrations” value in series [1] (60–100 μM compound) is on record as “inhibitory”. For the same molecule, the “fit of spectral titration curve, substrate-free CYP46A1” value in series [2] is “hyperbolic”. Moreover, the “spectral response type, substrate-free CYP46A1” value in series [2] (P450 difference spectrum, 18 °C) is given as “type 2”. Further, the “fit of spectral titration curve, cholesterol-bound CYP46A1” value in series [3] is given as “sigmoidal”. In addition, in series [3] (18 °C), the “spectral response fit, cholesterol-bound CYP46A1” value is “S” and the “spectral response type, cholesterol-bound CYP46A1” value is on record as “reverse type 1”. Besides, the “mechanism of binding to substrate-free CYP46A1” value in [4] (stopped-flow experiments) is “conformational-selection”. In addition, in series [4] (substrate-free CYP46A1, 15–30 μM compound), the “spectral binding at 15–30 μM, stopped-flow” value is on record as “measurable”. Besides, the “CYP46A1 inhibition at 100 μM” value in series [5] is recorded as “almost completely inhibited”. In addition, the plasma level in series [6] is 2170 to 3350 ng/mL. In series [7], the cerebrospinal fluid level is 13.9 to 19.5 ng/mL. Also, the “protein (albumin)-bound in the blood” value in [8] is at least 99.6%. The “brain levels exceeding those in the plasma” value in [9] is reported as 4.6 times. Moreover, the “effect on CYP46A1 in the brain” value in [10] is on record as “inhibited”.
